Counter-ions that a name gives are not always drawn.

The source of these data is patent US9447038B2 (SANOFI, priority 2012, dated 2016).

In the assay the target is human CXCR3-A receptor (Homo sapiens (Human), UniProt P49682). Nature of the assay: 125I-CXCL10 competition radioligand binding assay.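 Also: One-hour incubation of membranes with tracer, bound radioligand separated by glass fibre filtration, IC50 derived from four-parameter nonlinear fit of competition curves.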 The following applies: displacement of 125I-CXCL10 from membranes of CHO cells expressing human recombinant CXCR3-A. A general note: Displacement assays read how much labelled ligand stays bound in the presence of the test substance.
Sequence of human CXCR3-A receptor (P49682 whole entry): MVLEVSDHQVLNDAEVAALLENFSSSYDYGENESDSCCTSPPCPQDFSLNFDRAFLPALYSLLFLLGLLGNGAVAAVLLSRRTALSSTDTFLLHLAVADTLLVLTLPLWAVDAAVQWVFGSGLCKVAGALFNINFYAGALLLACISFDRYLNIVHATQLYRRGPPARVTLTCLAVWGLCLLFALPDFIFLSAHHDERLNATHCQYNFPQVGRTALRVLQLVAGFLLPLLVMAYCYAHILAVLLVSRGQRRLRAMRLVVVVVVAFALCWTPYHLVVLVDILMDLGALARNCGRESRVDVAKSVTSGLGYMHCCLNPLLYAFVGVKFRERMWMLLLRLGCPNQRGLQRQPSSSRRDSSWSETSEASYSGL
With `COc1cc(CN(CC2CCCC2)C(CC(=O)O)c2ccc(Cl)cc2Cl)ccc1OCCN1C(=O)CCC1=O` (centres unmarked) [Example 3, 3-(Cyclopentylmethyl-{4-[2-(2,5-dioxo-pyrrolidin-1-yl)-ethoxy]-3-methoxy-benzyl}-amino)-3-(2,4-dichloro-phenyl)-propionic acid], the IC50 came to 120 nM.

As for `CC(C)CN(Cc1ccc(OCCN2C(=O)CCC2=O)c(F)c1)[C@@H](CC(=O)O)c1ccc(Cl)c(F)c1` [Example 21, (S)-3-(4-Chloro-3-fluoro-phenyl)-3-({4-[2-(2,5-dioxo-pyrrolidin-1-yl)-ethoxy]-3-fluoro-benzyl}-isobutyl-amino)-propionic acid; hydrochloride], the IC50 is 66 nM. Regarding `CC(C)CN(Cc1ccc(OCCN2C(=O)CCC2=O)c(F)c1)[C@H](CC(=O)O)c1ccc(Cl)c(F)c1` [Example 22, (R)-3-(4-Chloro-3-fluoro-phenyl)-3-({4-[2-(2,5-dioxo-pyrrolidin-1-yl)-ethoxy]-3-fluoro-benzyl}-isobutyl-amino)-propionic acid; hydrochloride], the IC50 was determined as 531 nM. The result for `Cc1cc(CN(CC2CC2)[C@@H](CC(=O)O)c2ccc(Cl)c(Cl)c2)ccc1OCCN1C(=O)CCC1=O` [Example 26, (S)-3-(Cyclopropylmethyl-{4-[2-(2,5-dioxo-pyrrolidin-1-yl)-ethoxy]-3-methyl-benzyl}-amino)-3-(3,4-dichloro-phenyl)-propionic acid] reads 39 nM. `Cc1cc(CN(CC2CC2)[C@H](CC(=O)O)c2ccc(Cl)c(Cl)c2)ccc1OCCN1C(=O)CCC1=O` [Example 27, (R)-3-(Cyclopropylmethyl-{4-[2-(2,5-dioxo-pyrrolidin-1-yl)-ethoxy]-3-methyl-benzyl}-amino)-3-(3,4-dichloro-phenyl)-propionic acid]: the IC50 came out at 86 nM. On to `Cc1cc(CN(CC2CCCCC2)[C@@H](CC(=O)O)c2ccc(Cl)cc2)ccc1OCCN1C(=O)CN(C)C1=O` [Example 30, (S)-3-(4-Chloro-phenyl)-3-(cyclohexylmethyl-{3-methyl-4-[2-(3-methyl-2,5-dioxo-imidazolidin-1-yl)-ethoxy]-benzyl}-amino)-propionic acid], for which the IC50 is 55 nM. The result for `Cc1cc(CN(CC2CCCCC2)[C@H](CC(=O)O)c2ccc(Cl)cc2)ccc1OCCN1C(=O)CN(C)C1=O` [Example 31, (R)-3-(4-Chloro-phenyl)-3-(cyclohexylmethyl-{3-methyl-4-[2-(3-methyl-2,5-dioxo-imidazolidin-1-yl)-ethoxy]-benzyl}-amino)-propionic acid] reads 416 nM; that for `Cc1cc(CN(CC2CCCC2)[C@@H](CC(=O)O)c2ccc(Cl)c(F)c2)ccc1OCCN1C(=O)CN(C)C1=O` [Example 32, (S)-3-(4-Chloro-3-fluoro-phenyl)-3-(cyclopentylmethyl-{3-methyl-4-[2-(3-methyl-2,5-dioxo-imidazolidin-1-yl)-ethoxy]-benzyl}-amino)-propionic acid], 69 nM; that for `Cc1cc(CN(CC2CCCC2)[C@H](CC(=O)O)c2ccc(Cl)c(F)c2)ccc1OCCN1C(=O)CN(C)C1=O` [Example 33, (R)-3-(4-Chloro-3-fluoro-phenyl)-3-(cyclopentylmethyl-{3-methyl-4-[2-(3-methyl-2,5-dioxo-imidazolidin-1-yl)-ethoxy]-benzyl}-amino)-propionic acid], 86 nM.

As to `Cc1cc(CN(CC2CCCCC2)[C@@H](CC(=O)O)c2ccc(Cl)c(F)c2)ccc1OCCN1C(=O)CN(C)C1=O` [Example 34, (S)-3-(4-Chloro-3-fluoro-phenyl)-3-(cyclohexylmethyl-{3-methyl-4-[2-(3-methyl-2,5-dioxo-imidazolidin-1-yl)-ethoxy]-benzyl}-amino)-propionic acid], the IC50 stood at 83 nM.

Consider `Cc1cc(CN(CC2CCCCC2)[C@H](CC(=O)O)c2ccc(Cl)c(F)c2)ccc1OCCN1C(=O)CN(C)C1=O` [Example 35, (R)-3-(4-Chloro-3-fluoro-phenyl)-3-(cyclohexylmethyl-{3-methyl-4-[2-(3-methyl-2,5-dioxo-imidazolidin-1-yl)-ethoxy]-benzyl}-amino)-propionic acid], for which the IC50 was determined as 75 nM.

Usually IC50 stands for the point on the concentration scale where inhibition reaches its midpoint.
